In brackets after ≈: the same amount, converted by molar mass.
Legend:
[1] = Cytotoxicity against BEL-7402 cells after 72 hrs by MTT assay; format: cell-based, Homo sapiens
[2] = system: HL-60; assay: Cytotoxicity against HL60 cells after 72 hrs by MTT assay; format: cell-based, Homo sapiens
[3] = system: P388; assay: Cytotoxicity against P388 cells after 72 hrs by MTT assay; format: cell-based, Mus musculus; settings: for IC50: Mus musculus, P388, 72 h
[4] = system: A549; assay: Cytotoxicity against A549 cells after 72 hrs by MTT assay; format: cell-based; settings: human, a549, 72 h

| SMILES | Activity ([1]; human, bel-7402, 72 h) | Activity ([2]; human, hl-60, 72 h) | Activity ([3]; mouse, p388, 72 h) | Activity [4] | IC50 ([2]; Homo sapiens, HL-60, 72 h) | IC50 [3] | IC50 ([1]; Homo sapiens, Bel-7402, 72 h) |
| --- | --- | --- | --- | --- | --- | --- | --- |
| CO[C@@]1(CC(C)C)NC(=O)[C@H](CCC(N)=O)n2c1nc1ccccc1c2=O [AURANTIOMIDE A] | Not Active | Not Active | Not Active | Not Active | – | – | – |
| CC(C)C[C@]1(O)NC(=O)[C@H](CCC(N)=O)n2c1nc1ccccc1c2=O [AURANTIOMIDE B] | – | – | – | – | 52 µg/mL (≈ 145 µM) | 54 µg/mL (≈ 151 µM) | – |
| CC(C)/C=C1\NC(=O)[C@H](CCC(N)=O)n2c1nc1ccccc1c2=O [AURANTIOMIDE C] | – | – | – | – | – | 48 µg/mL (≈ 141 µM) | 48 µg/mL (≈ 141 µM) |

Source: ChEMBL document CHEMBL1139882, “Aurantiomides A-C, quinazoline alkaloids from the sponge-derived fungus Penicillium aurantiogriseum SP0-19” (J Nat Prod, 2007)
